The results in this text go back to patent US8247556B2, “Method for preparing 6-substituted-7-aza-indoles” (Amgen Inc., priority 2005, dated 2012).

Molecules are shown by their SMILES.

One assay addresses T1, CYP 3A4 (Homo sapiens, UniProt P08684).
T1 construct: followed by 222.2 ml of 20 mg/mL HLM (BD Gentest); tissue BD Gentest; host or cells: human liver microsomes
Briefly: Human Liver Microsome CYP 3A4 Inhibition. In kind it is in vitro ADME. The following applies: human liver microsomes, midazolam substrate; read-out: inhibited CYP3A4 microsomes, IC50. The method, then: Determining the IC-50 for Human Liver Microsome CYP 3A4 Inhibition
Postassium Phosphate Buffer pH 7.4 (39.667 mL) is chilled in an ice bath and added to a 50 ml plastic tube. A 2 mM midazolam solution is prepared. 111.1 ul of 2 mM midazolam is added to the buffer followed by 222.2 ml of 20 mg/mL HLM (BD Gentest). The incubation mixture was gently inverted and equilibrated at 37° C. for 5 min. A stock inhibitor solution is prepared, such as in DMSO. Incubation mixture (801 ul) is added into 96-well, 1.2 mL plastic tubes. Inhibitor is added at various concentrations (e.g. 30 uM to 120 nM). The tubes are sealed and mix by inverting 5 times gently. The incubation mixture containing inhibitor (270 uL) is added by aliquot into wells of a 1 mL, 96-well block (duplicate). The block is placed into a 37° C. water bath and equilibrated for 3 min. 10 mM NADPH (30 ml) is added to all samples. After 5 minutes, the reactions are stopped by adding 300 ml of Quench Solution [0.1% TFA in CH3CN]. 1′-OH-Midazolam-d313C (2 mg/mL 30 uL) is added, the block is gently vortexed then centrifuged at 3000 rpm for 10 minutes at 4° C. 50 μL of supernatant from all samples is added by aliquot into a shorter, 96-well block. The aliquoted supernatants are pooled with other assay(s) and HPLC Grade Water (50 ul) is added to all samples. After covering and shaking by vortex gently for 2 minutes, the solutions were analyzed by LC-MS (API 3000,5% MeOH w/0.1% AcOH to 95% MeOH w/0.1% AcOH). 37 nM ketoconazole is used as a control.

The target in the next assay is T2, CYP 2D6 (Homo sapiens, UniProt P10635).
T2 construct: followed by 555.6 ml of 20 mg/mL HLM (BD Gentest); tissue BD Gentest; host or cells: human liver microsomes
T2 sequence (P10635 whole entry): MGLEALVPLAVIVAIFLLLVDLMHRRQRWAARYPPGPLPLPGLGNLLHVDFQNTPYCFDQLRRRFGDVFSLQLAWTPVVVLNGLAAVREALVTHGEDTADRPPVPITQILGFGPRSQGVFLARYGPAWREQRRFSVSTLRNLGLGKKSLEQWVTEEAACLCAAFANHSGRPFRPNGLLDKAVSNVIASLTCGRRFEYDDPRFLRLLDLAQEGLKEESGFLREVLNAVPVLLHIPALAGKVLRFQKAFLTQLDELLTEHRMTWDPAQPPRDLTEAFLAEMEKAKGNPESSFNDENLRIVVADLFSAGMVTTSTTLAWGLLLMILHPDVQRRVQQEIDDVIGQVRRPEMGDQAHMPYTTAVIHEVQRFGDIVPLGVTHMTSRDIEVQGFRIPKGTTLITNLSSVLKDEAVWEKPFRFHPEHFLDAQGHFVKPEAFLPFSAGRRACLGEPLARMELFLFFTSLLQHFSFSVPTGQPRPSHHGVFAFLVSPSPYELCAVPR
Put plainly: Human Liver Microsome CYP 2D6 Inhibition. The assay is classed as in vitro ADME. Particulars: human liver microsomes, bufuralol substrate; read-out: inhibited CYP2D6 microsomes, IC50. In short, it runs like this:
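Pooled human liver microsomes with bufuralol in potassium phosphate pH 7.4, preincubated with inhibitor at 37 °C; reaction started with NADPH, quenched after 5 min with 0.1% TFA in acetonitrile. 1′-OH-bufuralol quantified by LC-MS with deuterated internal standard; IC50 determined, quinidine 500 nM as control.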
(Liver microsomes are vesicles of endoplasmic reticulum, rich in cytochrome P450 enzymes.)

In assay [1] the test system is VEGF-stimulated HUVEC proliferation (Human Umbilical Vein Endothelial cells). Put plainly: HUVEC Proliferation Assay. The assay is classed as cell-based. The following applies: VEGF 50 ng/mL, 72 h, CyQuant fluorescent dye, read-out: inhibited VEGF-stimulated HUVEC proliferation at a level. The gist of the method:
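HUVEC (passage 2–3) were seeded in DMEM+10% FBS for 22 h, then pre-incubated 2–3 h with 5-point, 5-fold compound dilutions (0.25% DMSO). They were then stimulated with VEGF (50 ng/mL final) for 72 h at 37 °C. Proliferation was read by CyQuant fluorescence (485/530 nm) after freeze-thaw, and IC50 came from a 4-parameter fit.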

T1 sequence (P08684 whole entry): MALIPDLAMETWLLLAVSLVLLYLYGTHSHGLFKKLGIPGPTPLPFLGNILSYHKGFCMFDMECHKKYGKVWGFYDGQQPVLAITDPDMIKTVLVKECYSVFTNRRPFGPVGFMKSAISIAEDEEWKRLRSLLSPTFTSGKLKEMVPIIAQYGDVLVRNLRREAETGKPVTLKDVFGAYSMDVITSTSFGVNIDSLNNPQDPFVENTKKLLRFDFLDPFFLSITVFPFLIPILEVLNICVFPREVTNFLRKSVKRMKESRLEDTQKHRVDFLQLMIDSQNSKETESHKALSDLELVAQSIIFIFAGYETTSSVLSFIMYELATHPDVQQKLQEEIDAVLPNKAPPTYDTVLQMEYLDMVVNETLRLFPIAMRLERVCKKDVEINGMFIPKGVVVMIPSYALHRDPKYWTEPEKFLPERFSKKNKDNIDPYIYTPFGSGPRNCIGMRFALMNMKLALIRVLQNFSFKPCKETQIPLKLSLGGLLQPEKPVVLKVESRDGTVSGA

Regarding `O=C(Nc1ccc(C(F)(F)C(F)(F)F)cc1)c1cc(F)cnc1NCc1ccnc2[nH]ccc12` [Example 76, 5-fluoro-N-(4-(pentafluoroethyl)phenyl)-2-((1H-pyrrolo[2,3-b]pyridin-4-ylmethyl)amino)-3-pyridinecarboxamide], the IC50 at CYP 3A4 is greater than 20 µM; on CYP 2D6, greater than 20 µM; in assay [1] it was less than 500 nM.
Regarding `CN(C)CC(=O)Nc1cc(NC(=O)c2cccnc2NCc2ccnc3[nH]ccc23)ccc1C(C)(C)C` [Example 59, N-[4-tert-Butyl-3-(2-dimethylamino-acetylamino)-phenyl]-2-[(1H-pyrrolo[2,3-b]pyridin-4-ylmethyl)-amino]-nicotinamide], the values for the IC50 (at CYP 3A4; on CYP 2D6; in assay [1]) were greater than 20 µM, greater than 20 µM and less than 500 nM, respectively.
Consider `CC(C)(C)c1ccc(NC(=O)c2cc(F)cnc2NCc2ccnc3[nH]ncc23)cc1` [Example 125, N-(4-(1,1-Dimethylethyl)phenyl)-5-fluoro-2-((1H-pyrazolo[3,4-b]pyridin-4-ylmethyl)amino)-3-pyridinecarboxamide], for which the values for the IC50 (at CYP 3A4; on CYP 2D6; in assay [1]) were greater than 20 µM, greater than 20 µM and less than 500 nM, respectively.
Consider `Cc1cc(NC(=O)c2cc(F)cnc2NCc2ccnc3[nH]ccc23)ccc1C(C)C` [Example 83, 5-fluoro-N-(3-methyl-4-(1-methylethyl)phenyl)-2-((1H-pyrrolo[2,3-b]pyridin-4-ylmethyl)amino)-3-pyridinecarboxamide], for which the IC50 on CYP 3A4 is greater than 20 µM; at CYP 2D6, greater than 20 µM; in assay [1], less than 500 nM.
Take `CC1(C)CNCc2cc(NC(=O)c3cccnc3NCc3ccnc4[nH]ccc34)ccc21` [Example 1, N-(4,4-Dimethyl-1,2,3,4-tetrahydroisoquinolin-7-yl)-2-[(1H-pyrrolo[2,3-b]pyridin-4-ylmethyl)amino]nicotinamide]: the IC50 was 9.8 µM on CYP 3A4, 10 µM on CYP 2D6 and less than 500 nM in assay [1].
The matching figures for `CC(C)(C)c1cc(NC(=O)c2cccnc2NCc2ccnc3[nH]ccc23)no1` [Example 49, N-(5-tert-butylisoxazol-3-yl)-2-[(1H-pyrrolo[2,3-b]pyridin-4-ylmethyl)amino]nicotinamide]: greater than 20 µM, greater than 20 µM and less than 500 nM.
The corresponding values for `O=C(Nc1ccc(OC(F)(F)F)cc1)c1cc(F)cnc1NCc1ccnc2[nH]ccc12` [Example 96, 5-fluoro-2-((1H-pyrrolo[2,3-b]pyridin-4-ylmethyl)amino)-N-(4-((trifluoromethyl)oxy)phenyl)-3-pyridinecarboxamide] are greater than 20 µM, greater than 20 µM and less than 500 nM.
The matching figures for `O=C(Nc1ccc(OC(F)(F)F)cc1)c1cc(F)cnc1NCc1ccnc2[nH]ncc12` [Example 126, 5-Fluoro-2-((1H-pyrazolo[3,4-b]pyridin-4-ylmethyl)amino)-N-(4-((trifluoromethyl)oxy)phenyl)-3-pyridinecarboxamide]: greater than 20 µM, greater than 20 µM and less than 500 nM.
Take `CC1(C)CNc2cc(NC(=O)c3cccnc3NCc3ccnc4[nH]ccc34)ccc21` [Example 16, N-(3,3-Dimethyl-2,3-dihydro-1H-indol-6-yl)-2-[(1H-pyrrolo[2,3-b]pyridin-4-ylmethyl)amino]nicotinamide]: the IC50 on CYP 3A4 was greater than 20 µM; on CYP 2D6, greater than 20 µM; in assay [1], less than 500 nM.
Consider `CC1(C)CNc2cc(NC(=O)c3cccnc3NCc3ccnc4c3CCN4)ccc21` [Example 32, 2-[(2,3-Dihydro-1H-pyrrolo[2,3-b]pyridin-4-ylmethyl)amino]-N-(3,3-dimethyl-2,3-dihydro-1H-indol-6-yl)nicotinamide], for which the IC50 at CYP 3A4 was greater than 20 µM; at CYP 2D6, greater than 20 µM; in assay [1], less than 500 nM.
With `O=C(Nc1ccc2ccccc2c1)c1cccnc1NCc1ccnc2[nH]ccc12` [Example 50, N-Naphthalen-2-yl-2-[(1H-pyrrolo[2,3-b]pyridin-4-ylmethyl)-amino]-nicotinamide], the IC50 was greater than 20 µM on CYP 3A4, greater than 20 µM on CYP 2D6 and less than 500 nM in assay [1].
In the case of `O=C(Nc1ccc(C(F)(F)F)cc1)c1cc(F)cnc1NCc1ccnc2[nH]ncc12` [Example 118, 5-Fluoro-2-((1H-pyrazolo[3,4-b]pyridin-4-ylmethyl)amino)-N-(4-(trifluoromethyl)phenyl)-3-pyridinecarboxamide], the IC50 at CYP 3A4 was greater than 20 µM; at CYP 2D6 it was greater than 20 µM; in assay [1] it was less than 500 nM.
Regarding `CC(C)(C)c1ccc(NC(=O)c2cccnc2NCc2ccnc3[nH]ccc23)cc1` [Example 5, N-(4-tert-Butylphenyl)-2-[(1H-pyrrolo[2,3-b]pyridin-4-ylmethyl)amino]nicotinamide], the values for the IC50 (on CYP 3A4; on CYP 2D6; in assay [1]) were greater than 20 µM, greater than 20 µM and less than 500 nM, respectively.
For `CC1(C)CCNc2cc(NC(=O)c3cccnc3NCc3ccnc4[nH]ccc34)ccc21` [Example 9, N-(4,4-Dimethyl-1,2,3,4-tetrahydroquinolin-7-yl)-2-[(1H-pyrrolo[2,3-b]pyridin-4-ylmethyl)amino]nicotinamide], the IC50 on CYP 3A4 is greater than 20 µM; at CYP 2D6, greater than 20 µM; in assay [1], less than 500 nM.
Take `CC1(C)CN(C(=O)[C@@H]2CCCO2)c2cc(NC(=O)c3cccnc3NCc3ccnc4[nH]ccc34)ccc21` [Example 34, N-{3,3-dimethyl-1-[(2S)-tetrahydrofuran-2-ylcarbonyl]-2,3-dihydro-1H-indol-6-yl}-2-[(1H-pyrrolo[2,3-b]pyridin-4-ylmethyl)amino]nicotinamide]: the figures for the IC50 (on CYP 3A4; on CYP 2D6; in assay [1]) were greater than 20 µM, greater than 20 µM and less than 500 nM, respectively.
Consider `Cc1cc(NC(=O)c2cc(F)cnc2NCc2ccnc3[nH]ncc23)ccc1C(C)C` [Example 121, 5-Fluoro-N-(3-methyl-4-(1-methylethyl)phenyl)-2-((1H-pyrazolo[3,4-b]pyridin-4-ylmethyl)amino)-3-pyridinecarboxamide], for which the figures for the IC50 (at CYP 3A4; at CYP 2D6; in assay [1]) were greater than 20 µM, greater than 20 µM and less than 500 nM, respectively.
Turning to `O=C(Nc1ccc(C(F)(F)F)cc1)c1cccnc1NCc1ccnc2[nH]ccc12` [Example 66, 2-[(1H-Pyrrolo[2,3-b]pyridin-4-ylmethyl)-amino]-N-(4-trifluoromethyl-phenyl)-nicotinamide], the IC50 at CYP 3A4 was greater than 20 µM; on CYP 2D6, greater than 20 µM; in assay [1], less than 500 nM.
With `Cc1nc2cc(NC(=O)c3cccnc3NCc3ccnc4[nH]ccc34)ccc2s1` [Example 48, N-(2-methyl-1,3-benzothiazol-5-yl)-2-[(1H-pyrrolo[2,3-b]pyridin-4-ylmethyl)amino]nicotinamide], the figures for the IC50 (on CYP 3A4; at CYP 2D6; in assay [1]) were greater than 20 µM, greater than 20 µM and less than 500 nM, respectively.
On to `CC(C)(C)c1ccc(NC(=O)c2cccnc2NCc2ccnc3c2CCN3)cc1` [Example 28, N-(4-tert-Butylphenyl)-2-[(2,3-dihydro-1H-pyrrolo[2,3-b]pyridin-4-ylmethyl)amino]nicotinamide], for which the IC50 on CYP 3A4 was greater than 20 µM; at CYP 2D6, greater than 20 µM; in assay [1], less than 500 nM.
Regarding `O=C(Nc1ccc(C(F)(F)C(F)(F)F)cc1)c1cccnc1NCc1ccnc2[nH]ccc12` [Example 67, N-(4-pentafluoroethyl-phenyl)-2-[(1H-pyrrolo[2,3-b]pyridin-4-ylmethyl)-amino]-nicotinamide], the IC50 was greater than 20 µM at CYP 3A4, greater than 20 µM at CYP 2D6 and less than 500 nM in assay [1].
Consider `CC1(C)CNc2cc(NC(=O)c3cc(F)cnc3NCc3ccnc4[nH]ccc34)ccc21` [Example 130, N-(3,3-Dimethyl-2,3-dihydro-1H-indol-6-yl)-5-fluoro-2-((1H-pyrrolo[2,3-b]pyridin-4-ylmethyl)amino)-3-pyridinecarboxamide], for which the figures for the IC50 (at CYP 3A4; on CYP 2D6; in assay [1]) were greater than 20 µM, greater than 20 µM and less than 500 nM, respectively.
